Data from ChEMBL document CHEMBL1909046, “DrugMatrix in vitro pharmacology data”.

Columns and labels:
[1] = molecular target: Adenosine receptor A2a (Homo sapiens, UniProt P29274); assay: DRUGMATRIX: Adenosine A2A radioligand binding (ligand: […]); assay type: cell membranes, HEK293, Membrane; details: hek293; Not Active = under 50% inhibition at 10 µM
[2] = molecular target: Protein kinase C alpha type (Homo sapiens, UniProt P17252); assay type: cell-based; details: sf9;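 note: inhibition of PKCalpha kinase activity measured in an enzyme assay with histone as the phosphorylation substrate; in other assays of this panel Not Active means under 50% inhibition at 10 µM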
[3] = molecular target: T1, Calcitonin receptor (Homo sapiens, UniProt P30988); assay type: cell membranes, Membrane; details: t47d; note: in other assays of this panel Not Active means under 50% inhibition at 10 µM
T1 sequence (P30988 whole entry): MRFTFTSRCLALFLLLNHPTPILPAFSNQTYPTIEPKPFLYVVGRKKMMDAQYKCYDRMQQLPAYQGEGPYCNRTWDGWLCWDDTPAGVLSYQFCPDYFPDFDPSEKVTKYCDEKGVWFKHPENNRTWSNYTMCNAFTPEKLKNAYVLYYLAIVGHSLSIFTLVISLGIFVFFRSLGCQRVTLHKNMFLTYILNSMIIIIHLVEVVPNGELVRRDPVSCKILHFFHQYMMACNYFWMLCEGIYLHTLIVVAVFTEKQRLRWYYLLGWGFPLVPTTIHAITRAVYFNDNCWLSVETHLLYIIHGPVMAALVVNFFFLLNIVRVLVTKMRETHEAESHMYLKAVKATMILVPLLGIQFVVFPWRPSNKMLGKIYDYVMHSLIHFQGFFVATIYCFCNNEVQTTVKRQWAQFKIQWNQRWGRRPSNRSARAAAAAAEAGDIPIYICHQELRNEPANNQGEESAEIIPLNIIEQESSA

[4] = molecular target: Beta-1 adrenergic receptor (Homo sapiens, UniProt P08588); assay: DRUGMATRIX: Adrenergic beta1 radioligand binding (ligand: [125I] Cyanopindolol); assay type: cell membranes, CHO-K1, Membrane; details: cho-k1; Not Active = under 50% inhibition at 10 µM
Chain of Beta-1 adrenergic receptor (P08588 whole entry): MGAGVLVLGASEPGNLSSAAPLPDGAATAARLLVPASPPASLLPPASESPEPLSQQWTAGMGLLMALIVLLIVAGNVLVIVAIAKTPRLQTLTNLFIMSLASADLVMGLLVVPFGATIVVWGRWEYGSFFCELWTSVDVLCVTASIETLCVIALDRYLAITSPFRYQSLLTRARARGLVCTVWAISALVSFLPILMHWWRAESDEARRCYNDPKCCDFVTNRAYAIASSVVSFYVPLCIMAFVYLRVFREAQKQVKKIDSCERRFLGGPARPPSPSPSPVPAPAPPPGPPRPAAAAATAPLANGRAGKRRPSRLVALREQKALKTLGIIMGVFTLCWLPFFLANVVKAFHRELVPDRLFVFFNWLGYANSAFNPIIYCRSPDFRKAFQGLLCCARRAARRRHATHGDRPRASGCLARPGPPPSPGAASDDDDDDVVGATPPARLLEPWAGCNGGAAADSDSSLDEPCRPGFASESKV

[5] = molecular target: Mu-type opioid receptor (Homo sapiens, UniProt P35372); assay: DRUGMATRIX: Opiate mu (OP3, MOP) radioligand binding (ligand: [3H] Diprenorphine); assay type: cell membranes, CHO-K1, Membrane; details: cho-k1; Not Active = under 50% inhibition at 10 µM
Chain of Mu-type opioid receptor (P35372 whole entry): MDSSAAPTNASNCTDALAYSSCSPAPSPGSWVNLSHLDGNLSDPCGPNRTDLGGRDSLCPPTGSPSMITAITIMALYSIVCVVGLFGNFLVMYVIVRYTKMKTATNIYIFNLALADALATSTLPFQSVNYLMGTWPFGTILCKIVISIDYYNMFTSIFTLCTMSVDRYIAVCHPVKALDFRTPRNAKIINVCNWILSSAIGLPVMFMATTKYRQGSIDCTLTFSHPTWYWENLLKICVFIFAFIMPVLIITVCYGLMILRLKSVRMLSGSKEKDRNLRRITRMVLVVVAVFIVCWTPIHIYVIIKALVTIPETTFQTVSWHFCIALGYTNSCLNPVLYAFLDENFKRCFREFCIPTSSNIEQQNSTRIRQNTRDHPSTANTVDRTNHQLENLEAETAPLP

[6] = molecular target: Melanocortin receptor 4 (Homo sapiens, UniProt P32245); assay type: cell membranes, Membrane; details: hek293; note: in other assays of this panel Not Active means under 50% inhibition at 10 µM
Chain of Melanocortin receptor 4 (P32245 whole entry): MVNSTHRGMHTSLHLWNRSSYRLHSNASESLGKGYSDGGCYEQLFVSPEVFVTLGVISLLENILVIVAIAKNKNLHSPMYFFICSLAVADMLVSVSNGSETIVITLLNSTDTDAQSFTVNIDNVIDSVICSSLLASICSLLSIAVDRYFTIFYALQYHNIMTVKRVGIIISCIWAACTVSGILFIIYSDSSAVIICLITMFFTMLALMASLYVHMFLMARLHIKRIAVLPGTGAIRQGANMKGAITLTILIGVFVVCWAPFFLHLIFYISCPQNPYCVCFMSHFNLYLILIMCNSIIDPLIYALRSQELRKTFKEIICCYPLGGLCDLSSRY

[7] = molecular target: T2, 5-hydroxytryptamine receptor 2C (Homo sapiens, UniProt P28335); assay: DRUGMATRIX: Serotonin (5-Hydroxytryptamine) 5-HT2C radioligand binding (ligand: [3H] Mesulergine); assay type: cell membranes, CHO-K1, Membrane; details: Not Active = under 50% inhibition at 10 µM
T2 sequence (P28335 whole entry): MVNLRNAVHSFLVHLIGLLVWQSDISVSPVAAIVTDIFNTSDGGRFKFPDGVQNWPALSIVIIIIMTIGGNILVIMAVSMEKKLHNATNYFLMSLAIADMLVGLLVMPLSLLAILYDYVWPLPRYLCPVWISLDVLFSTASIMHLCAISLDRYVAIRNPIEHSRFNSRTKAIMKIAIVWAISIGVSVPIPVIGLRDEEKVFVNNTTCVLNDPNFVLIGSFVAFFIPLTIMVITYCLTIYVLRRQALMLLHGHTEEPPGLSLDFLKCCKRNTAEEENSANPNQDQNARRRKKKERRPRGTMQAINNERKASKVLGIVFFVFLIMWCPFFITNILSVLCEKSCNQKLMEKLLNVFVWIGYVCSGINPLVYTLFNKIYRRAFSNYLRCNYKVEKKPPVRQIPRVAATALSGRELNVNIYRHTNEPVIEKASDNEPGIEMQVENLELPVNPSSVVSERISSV

[8] = molecular target: Acetylcholinesterase (Homo sapiens, UniProt P22303); assay: DRUGMATRIX: Acetylcholinesterase enzyme inhibition (substrate: acetylthiocholine); assay type: cell-based, HEK293; details: hek293; Not Active = under 50% inhibition at 10 µM
Chain of Acetylcholinesterase (P22303 whole entry): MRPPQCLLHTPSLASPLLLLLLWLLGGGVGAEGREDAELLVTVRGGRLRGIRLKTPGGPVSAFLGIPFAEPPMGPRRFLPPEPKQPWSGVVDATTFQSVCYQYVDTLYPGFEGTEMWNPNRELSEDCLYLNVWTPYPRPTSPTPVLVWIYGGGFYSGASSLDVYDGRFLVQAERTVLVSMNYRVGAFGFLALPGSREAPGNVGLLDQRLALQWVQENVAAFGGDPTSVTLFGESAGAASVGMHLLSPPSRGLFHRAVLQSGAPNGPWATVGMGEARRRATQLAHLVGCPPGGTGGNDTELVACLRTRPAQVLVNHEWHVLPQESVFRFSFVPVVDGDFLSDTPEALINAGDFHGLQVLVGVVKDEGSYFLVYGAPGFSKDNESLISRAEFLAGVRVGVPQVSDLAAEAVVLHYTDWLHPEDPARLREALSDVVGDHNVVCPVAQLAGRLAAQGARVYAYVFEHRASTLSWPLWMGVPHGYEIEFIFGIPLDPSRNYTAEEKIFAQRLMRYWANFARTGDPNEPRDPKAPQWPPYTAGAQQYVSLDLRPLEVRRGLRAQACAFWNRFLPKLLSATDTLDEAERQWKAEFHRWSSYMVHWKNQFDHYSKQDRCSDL

[9] = molecular target: T3, Leukotriene C4 synthase (Cavia porcellus, UniProt A6XA80); assay: biochemical; assay type: tissue-based, Lung;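 note: enzyme inhibition assay of leukotriene C4 synthase, using LTA4 as the substrate; in other assays of this panel Not Active means under 50% inhibition at 10 µM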
T3 sequence (A6XA80 whole entry): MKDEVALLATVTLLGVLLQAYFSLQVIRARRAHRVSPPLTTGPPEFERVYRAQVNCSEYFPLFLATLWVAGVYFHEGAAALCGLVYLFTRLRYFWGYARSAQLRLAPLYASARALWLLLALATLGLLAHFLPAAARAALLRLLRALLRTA

[10] = molecular target: T4, Muscarinic acetylcholine receptor M4 (Homo sapiens, UniProt P08173); assay type: cell membranes, CHO-K1, Membrane; details: for Ki: read-out: Ki
T4 sequence (P08173 whole entry): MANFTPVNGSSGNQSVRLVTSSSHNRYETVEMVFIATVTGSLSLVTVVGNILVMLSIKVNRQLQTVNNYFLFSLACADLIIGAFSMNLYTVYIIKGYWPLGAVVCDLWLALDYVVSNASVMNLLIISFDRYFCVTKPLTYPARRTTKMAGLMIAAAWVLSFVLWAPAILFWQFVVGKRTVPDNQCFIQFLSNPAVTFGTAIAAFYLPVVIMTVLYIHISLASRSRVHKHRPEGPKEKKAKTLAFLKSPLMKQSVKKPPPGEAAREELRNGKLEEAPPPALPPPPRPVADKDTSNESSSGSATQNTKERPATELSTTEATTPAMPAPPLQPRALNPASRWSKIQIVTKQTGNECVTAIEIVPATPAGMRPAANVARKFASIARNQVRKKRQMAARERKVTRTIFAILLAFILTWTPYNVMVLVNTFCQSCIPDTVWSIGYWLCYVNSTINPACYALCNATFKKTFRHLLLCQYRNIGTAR

[11] = molecular target: T5, Neuropeptide Y receptor type 1 (Homo sapiens, UniProt P25929); assay type: cell membranes, Membrane; details: sk-n-mc; note: in other assays of this panel Not Active means under 50% inhibition at 10 µM
T5 sequence (P25929 whole entry): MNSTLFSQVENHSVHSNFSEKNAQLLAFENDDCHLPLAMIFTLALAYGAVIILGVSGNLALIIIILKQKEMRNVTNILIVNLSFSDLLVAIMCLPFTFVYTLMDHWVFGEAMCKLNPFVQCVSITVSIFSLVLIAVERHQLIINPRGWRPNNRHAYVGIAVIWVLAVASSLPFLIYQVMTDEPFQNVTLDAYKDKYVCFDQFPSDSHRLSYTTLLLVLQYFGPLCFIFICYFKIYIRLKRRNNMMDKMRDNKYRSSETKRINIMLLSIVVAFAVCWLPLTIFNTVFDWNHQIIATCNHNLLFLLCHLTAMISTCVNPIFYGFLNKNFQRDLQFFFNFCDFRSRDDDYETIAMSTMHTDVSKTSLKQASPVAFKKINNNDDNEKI

[12] = molecular target: Histamine H2 receptor (Homo sapiens, UniProt P25021); assay type: cell membranes, CHO-K1, Membrane; note: in other assays of this panel Not Active means under 50% inhibition at 10 µM
Chain of Histamine H2 receptor (P25021 whole entry): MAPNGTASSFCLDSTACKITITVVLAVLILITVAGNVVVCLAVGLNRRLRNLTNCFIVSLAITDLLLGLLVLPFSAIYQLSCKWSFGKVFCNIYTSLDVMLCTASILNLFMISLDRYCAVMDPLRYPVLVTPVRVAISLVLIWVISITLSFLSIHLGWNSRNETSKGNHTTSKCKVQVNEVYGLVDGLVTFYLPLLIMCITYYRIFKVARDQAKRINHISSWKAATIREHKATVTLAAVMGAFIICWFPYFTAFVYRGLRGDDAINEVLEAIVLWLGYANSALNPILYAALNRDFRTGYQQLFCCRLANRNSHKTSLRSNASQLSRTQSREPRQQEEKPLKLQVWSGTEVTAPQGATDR

[13] = DRUGMATRIX: Potassium Channel [KATP] radioligand binding (ligand: [3H] Glyburide); assay type: cell membranes, Membrane; details: hit-t15; Not Active = under 50% inhibition at 10 µM

Chain of Adenosine receptor A2a (P29274 whole entry): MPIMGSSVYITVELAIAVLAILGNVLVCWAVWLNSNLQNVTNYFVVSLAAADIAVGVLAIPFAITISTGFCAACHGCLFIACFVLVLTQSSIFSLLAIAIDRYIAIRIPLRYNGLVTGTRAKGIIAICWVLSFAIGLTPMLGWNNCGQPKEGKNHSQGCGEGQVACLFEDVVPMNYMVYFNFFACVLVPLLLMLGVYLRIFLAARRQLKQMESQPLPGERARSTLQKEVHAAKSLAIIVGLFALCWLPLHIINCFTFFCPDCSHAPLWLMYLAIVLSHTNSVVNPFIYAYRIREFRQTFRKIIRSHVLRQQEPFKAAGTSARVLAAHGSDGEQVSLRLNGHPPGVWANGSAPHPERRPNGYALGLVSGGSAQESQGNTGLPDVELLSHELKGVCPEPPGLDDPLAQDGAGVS

Row | SMILES | IC50 [1] | IC50 [2] | IC50 [3] | IC50 [4] | IC50 [5] | IC50 [6] | IC50 ([7]; cho-k1) | IC50 [8] | IC50 [9] | IC50 ([10]; cho-k1) | IC50 [11] | IC50 ([12]; cho-k1) | IC50 [13] | Ki [13] | IC50 ([10]; read-out: IC50) [nM] | Ki [10] [nM] | IC50 ([7]; read-out: IC50) [nM] | Ki ([7]; read-out: Ki) [nM] | IC50 ([12]; read-out: IC50) [nM] | Ki ([12]; read-out: Ki) [nM]
1 | CN[C@@H]1[C@@H](O)[C@@H](O[C@@H]2[C@@H](O)[C@H](O[C@H]3OC(CN)=CC[C@H]3N)[C@@H](N)C[C@H]2N)OC[C@]1(C)O [SISOMICIN] | Not Active | Not Active | Not Active | Not Active | Not Active | Not Active | Not Active | Not Active | Not Active | Not Active | Not Active | Not Active | Not Active | Not Active | – | – | – | – | – | –
2 | C[C@](N)(Cc1ccc(O)cc1)C(=O)O [METYROSINE] | Not Active | Not Active | Not Active | Not Active | Not Active | Not Active | Not Active | Not Active | Not Active | Not Active | Not Active | Not Active | Not Active | Not Active | – | – | – | – | – | –
3 | CN1CCN2c3ccccc3Cc3ccccc3C2C1 (stereo not drawn) [MIANSERIN] | Not Active | Not Active | Not Active | Not Active | Not Active | Not Active | – | Not Active | Not Active | – | Not Active | – | – | – | 2070 | 288 | – | – | – | –
4 | CC(=O)[C@H]1CC[C@H]2[C@@H]3CCC4=CC(=O)CC[C@]4(C)[C@H]3CC[C@]12C [PROGESTERONE] | Not Active | Not Active | Not Active | Not Active | Not Active | Not Active | Not Active | Not Active | Not Active | Not Active | Not Active | Not Active | Not Active | Not Active | – | – | – | – | – | –
5 | Nc1ccc(S(=O)(=O)Nc2ccnn2-c2ccccc2)cc1 [SULFAPHENAZOLE] | Not Active | Not Active | Not Active | Not Active | Not Active | Not Active | Not Active | Not Active | Not Active | Not Active | Not Active | Not Active | Not Active | Not Active | – | – | – | – | – | –
6 | CC(C)(C)NC(=O)[C@@H]1CN(Cc2cccnc2)CCN1C[C@@H](O)C[C@@H](Cc1ccccc1)C(=O)N[C@H]1c2ccccc2C[C@H]1O.O | Not Active | Not Active | Not Active | Not Active | Not Active | Not Active | Not Active | Not Active | Not Active | Not Active | Not Active | Not Active | Not Active | Not Active | – | – | – | – | – | –
7 | CSc1ccc2c(c1)N(CCC1CCCCN1C)c1ccccc1S2 (stereo not drawn) [THIORIDAZINE] | Not Active | Not Active | Not Active | Not Active | Not Active | Not Active | – | Not Active | Not Active | – | Not Active | – | – | – | – | – | – | – | – | –
8 | O=C1c2c(O)ccc(O)c2C(=O)c2c(NCCNCCO)ccc(NCCNCCO)c21 [MITOXANTRONE] | Not Active | Not Active | Not Active | Not Active | Not Active | Not Active | – | Not Active | Not Active | – | Not Active | Not Active | Not Active | Not Active | 644 | 89.8 | – | – | – | –
9 | CN(C)CCCN1c2ccccc2CCc2ccc(Cl)cc21 [CLOMIPRAMINE] | Not Active | Not Active | Not Active | Not Active | Not Active | Not Active | – | Not Active | Not Active | – | Not Active | – | – | – | 91 | 13 | 34 | 18 | 2050 | 2020
10 | CC(C)(O)c1ccccc1CC[C@@H](SCC1(CC(=O)O)CC1)c1cccc(/C=C/c2ccc3ccc(Cl)cc3n2)c1 [MONTELUKAST] | Not Active | Not Active | Not Active | Not Active | Not Active | Not Active | Not Active | Not Active | Not Active | Not Active | Not Active | Not Active | – | – | – | – | – | – | – | –
11 | NCCCC[C@H](N[C@@H](CCc1ccccc1)C(=O)O)C(=O)N1CCC[C@H]1C(=O)O [LISINOPRIL ANHYDROUS] | Not Active | Not Active | Not Active | Not Active | Not Active | Not Active | Not Active | Not Active | Not Active | Not Active | Not Active | Not Active | – | – | – | – | – | – | – | –
